Assay results as given in article PMC7039746 (Cancer chemotherapy and pharmacology, 2020).

Biological target: EcPNP (Escherichia coli purine nucleoside phosphorylase) (Escherichia coli, UniProt P0ABP8)
Conditions: phosphate co-substrate (50 mM potassium phosphate), 100 mM HEPES pH 7.4, 25 °C

Sequence of EcPNP (Escherichia coli purine nucleoside phosphorylase) (P0ABP8 2-239): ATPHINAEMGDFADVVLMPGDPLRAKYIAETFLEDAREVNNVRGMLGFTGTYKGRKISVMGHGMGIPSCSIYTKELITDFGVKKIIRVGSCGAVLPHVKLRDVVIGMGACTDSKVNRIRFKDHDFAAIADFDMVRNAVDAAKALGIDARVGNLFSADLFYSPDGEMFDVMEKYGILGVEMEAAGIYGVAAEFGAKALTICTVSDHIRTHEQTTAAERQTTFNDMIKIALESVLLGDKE

Nc1nc(F)nc2c1ncn2[C@@H]1O[C@H](CO)[C@@H](O)[C@@H]1O [F-araA, 9-β-D-arabinofuranosyl-2-F-adenine]
Km: ~950 µM
